In patent US20230143604A1, “QW DOSING OF GIP RECEPTOR AGONIST PEPTIDE COMPOUNDS AND USES THEREOF” (TAKEDA PHARMACEUTICAL COMPANY LIMITED, priority 2020, published 2023):
Starred links: 1 amine or outer side, 2 acyl side, 3 side chain; linkers in the order of their positions; H or OH if unused. Non-standard residues stand in square brackets, D forms with d. Residues, ends and D or L forms follow the SMILES beside them. Groups on a side chain read outwards from the residue. *: point of attachment. C18 diacid = O=C(O)CCCCCCCCCCCCCCCCC(=O)*; C17 diacid = O=C(O)CCCCCCCCCCCCCCCC(=O)*; γGlu = O=C(O)[C@H](CCC(=O)[*:2])N[*:1]; NMeY = CN[C@@H](Cc1ccc(O)cc1)C(=O)O; AEEA = NCCOCCOCC(=O)O; Aib = CC(C)(N)C(=O)O

Test: physchem
Method in brief: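 Solubility at pH 7.4 determined by stepwise addition of 200 mM phosphate buffer in 100 μL increments to 3 mg peptide, mixing briefly each time, until no insoluble material remained, then measured by liquid chromatography.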

[1] = pH 7.4, aqueous buffer, pH 7.4 Phosphate Buffer - Solubility, 200 mM Phosphate buffer pH 7.4

CC[C@H](C)[C@H](NC(=O)[C@H](CO)NC(=O)[C@H](Cc1ccc(O)cc1)NC(=O)[C@H](CC(=O)O)NC(=O)[C@H](CO)NC(=O)[C@@H](NC(=O)[C@H](Cc1ccccc1)NC(=O)[C@@H](NC(=O)CNC(=O)[C@H](CCC(=O)O)NC(=O)C(C)(C)NC(=O)[C@@H](N)Cc1ccc(O)cc1)[C@@H](C)O)[C@@H](C)CC)C(=O)N[C@@H](C)C(=O)N[C@@H](CC(C)C)C(=O)N[C@@H](CC(=O)O)C(=O)N[C@@H](CCCCN)C(=O)N[C@@H](C)C(=O)N[C@@H](C)C(=O)N[C@@H](CCC(N)=O)C(=O)NC(C)(C)C(=O)N[C@@H](CCCCNC(=O)COCCOCCNC(=O)COCCOCCNC(=O)CC[C@H](NC(=O)CC[C@H](NC(=O)CCCCCCCCCCCCCCCCC(=O)O)C(=O)O)C(=O)O)C(=O)N[C@@H](Cc1ccccc1)C(=O)N[C@H](C(=O)N[C@@H](CCC(=O)O)C(=O)N[C@@H](Cc1c[nH]c2ccccc12)C(=O)N[C@@H](CC(C)C)C(=O)N[C@@H](CC(C)C)C(=O)N[C@@H](C)C(=O)N[C@@H](CCC(N)=O)C(=O)N[C@@H](CCCNC(=N)N)C(=O)NCC(=O)O)C(C)C [Compound 154] (H-Y[Aib]EGTFISDYSIALDKAAQ[Aib]K([AEEA-AEEA-γGlu-γGlu-C18 diacid])FVEWLLAQRG-OH)
solubility (pH 7.4): ≥ 15 mg/mL | solubility (pH 7.4, aqueous buffer): ≥ 30 mg/mL

CC[C@H](C)[C@H](NC(=O)[C@H](CO)NC(=O)[C@H](Cc1ccc(O)cc1)NC(=O)[C@H](CC(=O)O)NC(=O)[C@H](CO)NC(=O)[C@@H](NC(=O)[C@H](Cc1ccccc1)NC(=O)[C@@H](NC(=O)CNC(=O)[C@H](CCC(=O)O)NC(=O)C(C)(C)NC(=O)[C@H](Cc1ccc(O)cc1)NC)[C@@H](C)O)[C@@H](C)CC)C(=O)N[C@@H](C)C(=O)N[C@@H](CC(C)C)C(=O)N[C@@H](CC(=O)O)C(=O)N[C@@H](CCCNC(=N)N)C(=O)N[C@@H](CCCCNC(=O)COCCOCCNC(=O)COCCOCCNC(=O)CC[C@H](NC(=O)CCCCCCCCCCCCCCCC(=O)O)C(=O)O)C(=O)N[C@@H](C)C(=O)N[C@@H](CCC(N)=O)C(=O)NC(C)(C)C(=O)N[C@@H](CC(N)=O)C(=O)N[C@@H](Cc1ccccc1)C(=O)N[C@H](C(=O)N[C@@H](CC(N)=O)C(=O)N[C@@H](Cc1c[nH]c2ccccc12)C(=O)N[C@@H](CC(C)C)C(=O)N[C@@H](CC(C)C)C(=O)N[C@@H](C)C(=O)N[C@@H](CCC(N)=O)C(=O)N[C@@H](CCCNC(=N)N)C(=O)N1CCC[C@H]1C(=O)N[C@@H](CO)C(=O)N[C@@H](CO)C(=O)NCC(=O)N[C@@H](C)C(=O)N1CCC[C@H]1C(=O)N1CCC[C@H]1C(=O)N1CCC[C@H]1C(=O)N[C@@H](CO)C(N)=O)C(C)C [Compound 266] (H-[NMeY][Aib]EGTFISDYSIALDRK([AEEA-AEEA-γGlu-C17 diacid])AQ[Aib]NFVNWLLAQRPSSGAPPPS-NH2)
solubility [1]: < 6 mg/mL

CC[C@H](C)[C@H](NC(=O)[C@H](CO)NC(=O)[C@H](Cc1ccc(O)cc1)NC(=O)[C@H](CC(=O)O)NC(=O)[C@H](CO)NC(=O)[C@@H](NC(=O)[C@H](Cc1ccccc1)NC(=O)[C@@H](NC(=O)CNC(=O)[C@H](CCC(=O)O)NC(=O)C(C)(C)NC(=O)[C@H](Cc1ccc(O)cc1)NC)[C@@H](C)O)[C@@H](C)CC)C(=O)N[C@@H](C)C(=O)N[C@@H](CCCCNC(=O)CNC(=O)CNC(=O)CNC(=O)CNC(=O)CNC(=O)CC[C@H](NC(=O)CCCCCCCCCCCCCCCCC(=O)O)C(=O)O)C(=O)N[C@@H](CC(=O)O)C(=O)N[C@@H](CCCNC(=N)N)C(=O)NC(C)(C)C(=O)N[C@@H](C)C(=O)N[C@@H](CCC(N)=O)C(=O)NC(C)(C)C(=O)N[C@@H](CC(=O)O)C(=O)N[C@@H](Cc1ccccc1)C(=O)N[C@H](C(=O)N[C@@H](CC(N)=O)C(=O)N[C@@H](Cc1c[nH]c2ccccc12)C(=O)N[C@@H](CC(C)C)C(=O)N[C@@H](CC(C)C)C(=O)N[C@@H](C)C(=O)N[C@@H](CCC(N)=O)C(=O)N[C@@H](CCCNC(=N)N)C(=O)N1CCC[C@H]1C(=O)N[C@@H](CO)C(=O)N[C@@H](CO)C(=O)NCC(=O)N[C@@H](C)C(=O)N1CCC[C@H]1C(=O)N1CCC[C@H]1C(=O)N1CCC[C@H]1C(=O)N[C@@H](CO)C(N)=O)C(C)C [Compound 24]
solubility [1]: ≥ 30 mg/mL | solubility (pH 7.4, solubility in phosphate buffer at pH 7.4, 200 mM phosphate buffer pH 7.4): ≥ 15 mg/mL

CC[C@H](C)[C@H](NC(=O)[C@H](CO)NC(=O)[C@H](Cc1ccc(O)cc1)NC(=O)[C@H](CC(=O)O)NC(=O)[C@H](CO)NC(=O)[C@@H](NC(=O)[C@H](Cc1ccccc1)NC(=O)[C@@H](NC(=O)CNC(=O)[C@H](CCC(=O)O)NC(=O)C(C)(C)NC(=O)[C@H](Cc1ccc(O)cc1)NC)[C@@H](C)O)[C@@H](C)CC)C(=O)N[C@@H](C)C(=O)N[C@@H](CCCCNC(=O)CNC(=O)CNC(=O)CNC(=O)CNC(=O)CC[C@H](NC(=O)CCCCCCCCCCCCCCCCC(=O)O)C(=O)O)C(=O)N[C@@H](CC(=O)O)C(=O)N[C@@H](CCCNC(=N)N)C(=O)NC(C)(C)C(=O)N[C@@H](C)C(=O)N[C@@H](CCC(N)=O)C(=O)NC(C)(C)C(=O)N[C@@H](CC(=O)O)C(=O)N[C@@H](Cc1ccccc1)C(=O)N[C@H](C(=O)N[C@@H](CC(N)=O)C(=O)N[C@@H](Cc1c[nH]c2ccccc12)C(=O)N[C@@H](CC(C)C)C(=O)N[C@@H](CC(C)C)C(=O)N[C@@H](C)C(=O)N[C@@H](CCC(N)=O)C(=O)N[C@@H](CCCCN)C(=O)NCC(=O)O)C(C)C [Compound 80] (H-[NMeY][Aib]EGTFISDYSIAK([Gly-Gly-Gly-Gly-γGlu-C18 diacid])DR[Aib]AQ[Aib]DFVNWLLAQKG-OH)
solubility (pH 7.4): ≥ 15 mg/mL | solubility (pH 7.4, aqueous buffer): ≥ 30 mg/mL

CC[C@H](C)[C@H](NC(=O)[C@H](CO)NC(=O)[C@H](Cc1ccc(O)cc1)NC(=O)[C@H](CC(=O)O)NC(=O)[C@H](CO)NC(=O)[C@@H](NC(=O)[C@H](Cc1ccccc1)NC(=O)[C@@H](NC(=O)CNC(=O)[C@H](CCC(=O)O)NC(=O)C(C)(C)NC(=O)[C@H](Cc1ccc(O)cc1)NC)[C@@H](C)O)[C@@H](C)CC)C(=O)N[C@@H](C)C(=O)N[C@@H](CC(C)C)C(=O)N[C@@H](CC(=O)O)C(=O)N[C@@H](CCCNC(=N)N)C(=O)N[C@@H](CCCCNC(=O)COCCOCCNC(=O)COCCOCCNC(=O)CC[C@H](NC(=O)CCCCCCCCCCCCCCCCC(=O)O)C(=O)O)C(=O)N[C@@H](Cc1c[nH]cn1)C(=O)N[C@@H](CCC(N)=O)C(=O)N[C@@H](CCC(N)=O)C(=O)N[C@@H](CC(N)=O)C(=O)N[C@@H](Cc1ccccc1)C(=O)N[C@H](C(=O)N[C@@H](CC(N)=O)C(=O)N[C@@H](Cc1c[nH]c2ccccc12)C(=O)N[C@@H](CC(C)C)C(=O)N[C@@H](CC(C)C)C(=O)N[C@@H](C)C(=O)N[C@@H](CCC(N)=O)C(=O)N[C@@H](CCCCN)C(=O)O)C(C)C [Compound 246] (H-[NMeY][Aib]EGTFISDYSIALDRK([AEEA-AEEA-γGlu-C18 diacid])HQQNFVNWLLAQK-OH; C-terminus assumed)
solubility (pH 7.4, aqueous buffer): ≥ 0.7 mg/mL

CC[C@H](C)[C@H](NC(=O)[C@H](CO)NC(=O)[C@H](Cc1ccc(O)cc1)NC(=O)[C@H](CC(=O)O)NC(=O)[C@H](CO)NC(=O)[C@@H](NC(=O)[C@H](Cc1ccccc1)NC(=O)[C@@H](NC(=O)CNC(=O)[C@H](CCC(N)=O)NC(=O)C(C)(C)NC(=O)[C@H](Cc1ccc(O)cc1)NC)[C@@H](C)O)[C@@H](C)CC)C(=O)N[C@@H](C)C(=O)N[C@@H](CC(C)C)C(=O)N[C@@H](CC(=O)O)C(=O)N[C@@H](CCCNC(=N)N)C(=O)N[C@@H](CCCCNC(=O)CNC(=O)CNC(=O)CNC(=O)CNC(=O)CNC(=O)CNC(=O)CCCCCCCCCCCCCCCCC(=O)O)C(=O)N[C@@H](Cc1c[nH]cn1)C(=O)N[C@@H](CCC(N)=O)C(=O)NC(C)(C)C(=O)N[C@@H](CC(N)=O)C(=O)N[C@@H](Cc1ccccc1)C(=O)N[C@H](C(=O)N[C@@H](CC(N)=O)C(=O)N[C@@H](Cc1c[nH]c2ccccc12)C(=O)N[C@@H](CC(C)C)C(=O)N[C@@H](CC(C)C)C(=O)N[C@@H](C)C(=O)N[C@@H](CCC(N)=O)C(=O)N[C@@H](CCCNC(=N)N)C(=O)N1CCC[C@H]1C(=O)N[C@@H](CO)C(=O)N[C@@H](CO)C(=O)NCC(=O)N[C@@H](C)C(=O)N1CCC[C@H]1C(=O)N1CCC[C@H]1C(=O)N1CCC[C@H]1C(=O)N[C@@H](CO)C(=O)N[C@@H](CCCNC(=N)N)C(N)=O)C(C)C [Compound 278]
solubility [1]: < 15 mg/mL

CC[C@H](C)[C@H](NC(=O)[C@H](CO)NC(=O)[C@H](Cc1ccc(O)cc1)NC(=O)[C@H](CC(=O)O)NC(=O)[C@H](CO)NC(=O)[C@@H](NC(=O)[C@H](Cc1ccccc1)NC(=O)[C@@H](NC(=O)CNC(=O)[C@H](CCC(=O)O)NC(=O)[C@@H](C)NC(=O)[C@H](Cc1ccc(O)cc1)NC)[C@@H](C)O)[C@@H](C)CC)C(=O)N[C@@H](C)C(=O)N[C@@H](CC(C)C)C(=O)N[C@@H](CC(=O)O)C(=O)N[C@@H](CCCNC(=N)N)C(=O)N[C@H](C(=O)N[C@@H](Cc1c[nH]cn1)C(=O)N[C@@H](CCC(N)=O)C(=O)N[C@@H](CCC(N)=O)C(=O)N[C@@H](CC(N)=O)C(=O)N[C@@H](Cc1ccccc1)C(=O)N[C@H](C(=O)N[C@@H](CC(N)=O)C(=O)N[C@@H](Cc1c[nH]c2ccccc12)C(=O)N[C@@H](CC(C)C)C(=O)N[C@@H](CC(C)C)C(=O)N[C@@H](C)C(=O)N[C@@H](CCC(N)=O)C(=O)N[C@@H](CCCCNC(=O)COCCOCCNC(=O)COCCOCCNC(=O)CC[C@H](NC(=O)CCCCCCCCCCCCCCCCC(=O)O)C(=O)O)C(=O)O)C(C)C)[C@@H](C)CC [Compound 243] (H-[NMeY][dA]EGTFISDYSIALDRIHQQNFVNWLLAQK([AEEA-AEEA-γGlu-C18 diacid])-OH; N-terminus and C-terminus assumed)
solubility (pH 7.4, aqueous buffer): ≥ 7 mg/mL
